# Source: ChEMBL document CHEMBL1201862, “PubChem BioAssay data set” (2004)
#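 How tested: cells in 96-well plates exposed to compound for 48 hours at five concentrations. The concentration for 50% growth inhibition is given as GI50.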 Calls of active or inactive are those of the source. No stated cut-off is given here; in the data, active = GI50 up to about 1.1 µM and inactive = higher.
# Experiments:
# Assay in all cases: growth of human tumour cells (NCI), 48 h
# SF-268 = system: SF-268
# CCRF-CEM = system: CCRF-CEM
# ACHN = system: ACHN
# NCI-H226 = system: NCI-H226
# NCI-H460 = system: NCI-H460
# SW-620 = system: SW-620
# SNB-75 = system: SNB-75
# U-251 = system: U-251
# HCT-15 = system: HCT-15
# NCI/ADR-RES = system: NCI/ADR-RES
# TK-10 = system: TK-10
# SN12C = system: SN12C
# HCC 2998 = system: HCC 2998
# MOLT-4 = system: MOLT-4
# OVCAR-4 = system: OVCAR-4
# K562 = system: K562
# HOP-92 = system: HOP-92
# MDA-N = system: MDA-N
# NCI-H23 = system: NCI-H23
# CAKI-1 = system: CAKI-1
# SK-MEL-28 = system: SK-MEL-28
# OVCAR-8 = system: OVCAR-8
# MDA-MB-231 = system: MDA-MB-231
# BT-549 = system: BT-549
# UACC-257 = system: UACC-257
# RPMI-8226 = system: RPMI-8226
# UO-31 = system: UO-31
# KM12 = system: KM12
# MDA-MB-435 = system: MDA-MB-435
# SR = system: SR
# UACC-62 = system: UACC-62
# A498 = system: A498
# HL-60 = system: HL-60
# SNB-19 = system: SNB-19
# Hs-578T = system: Hs-578T
# HCT-116 = system: HCT-116
# 786-0 = system: 786-0
# MCF7 = system: MCF7
# PC-3 = system: PC-3
# SK-MEL-5 = system: SK-MEL-5
# Malme-3M = system: Malme-3M
# SK-MEL-2 = system: SK-MEL-2
# RXF 393 = system: RXF 393
# HOP-62 = system: HOP-62
# IGROV-1 = system: IGROV-1
# EKVX = system: EKVX
# M14 = system: M14
# COLO 205 = system: COLO 205
# A549 = system: A549
# HT-29 = system: HT-29
SMILES,GI50 (CCRF-CEM),GI50 (NCI-H226),GI50 (SW-620),GI50 (SNB-75),GI50 (HCT-15) [µM],GI50 (TK-10),GI50 (SN12C),GI50 (HCC 2998),GI50 (MOLT-4),GI50 (K562),GI50 (HOP-92),GI50 (NCI-H23),GI50 (SK-MEL-28),GI50 (OVCAR-8),GI50 (MDA-MB-231),GI50 (BT-549),GI50 (UACC-257),GI50 (RPMI-8226),GI50 (UO-31),GI50 (KM12),other results
CC1(C)/C(=N\O)C2(C#N)CCC1C2 (centres undefined),> 100 µM (inactive),> 100 µM (inactive),> 100 µM (inactive),> 100 µM (inactive),> 100,> 100 µM (inactive),> 100 µM (inactive),> 100 µM (inactive),> 100 µM (inactive),> 100 µM (inactive),> 100 µM (inactive),> 100 µM (inactive),> 100 µM (inactive),> 100 µM (inactive),> 100 µM (inactive),> 100 µM (inactive),> 100 µM (inactive),> 100 µM (inactive),> 100 µM (inactive),> 100 µM (inactive),GI50 (SF-268): > 100 µM (inactive); GI50 (ACHN): > 100 µM (inactive); GI50 (NCI-H460): > 100 µM (inactive); GI50 (U-251): > 100 µM (inactive); GI50 (NCI/ADR-RES): > 100 µM (inactive); GI50 (OVCAR-4): > 100 µM (inactive); GI50 (MDA-N): > 100 µM (inactive); GI50 (CAKI-1): > 100 µM (inactive); GI50 (MDA-MB-435): > 100 µM (inactive); GI50 (SR): > 100 µM (inactive); GI50 (UACC-62): > 100 µM (inactive); GI50 (A498): > 100 µM (inactive); GI50 (HL-60): > 100 µM (inactive); GI50 (SNB-19): > 100 µM (inactive)
CCOC(=O)c1ccc(/N=C2\S/C(=C\C(=S)Nc3ccccc3)N(c3ccccc3)\C2=N/c2ccc(C(=O)OCC)cc2)cc1,> 100 µM (inactive),> 100 µM (inactive),> 100 µM (inactive),34.5 µM (inactive),> 100,> 100 µM (inactive),> 100 µM (inactive),> 100 µM (inactive),> 100 µM (inactive),> 100 µM (inactive),22.8 µM (inactive),> 100 µM (inactive),95.5 µM (inactive),> 100 µM (inactive),> 100 µM (inactive),62.7 µM (inactive),94.2 µM (inactive),> 100 µM (inactive),> 100 µM (inactive),> 100 µM (inactive),GI50 (Hs-578T): 62.4 µM (inactive); GI50 (HCT-116): 27.2 µM (inactive); GI50 (786-0): 82 µM (inactive); GI50 (MCF7): > 100 µM (inactive); GI50 (PC-3): > 100 µM (inactive); GI50 (SK-MEL-5): 40.7 µM (inactive); GI50 (Malme-3M): 21.6 µM (inactive); GI50 (SK-MEL-2): > 100 µM (inactive); GI50 (RXF 393): 81.5 µM (inactive); GI50 (HOP-62): > 100 µM (inactive); GI50 (IGROV-1): > 100 µM (inactive); GI50 (EKVX): > 100 µM (inactive); GI50 (SR): > 100 µM (inactive); GI50 (M14): 34.6 µM (inactive); GI50 (UACC-62): > 100 µM (inactive); GI50 (COLO 205): > 100 µM (inactive); GI50 (A549): > 100 µM (inactive); GI50 (HT-29): > 100 µM (inactive); GI50 (HL-60): > 100 µM (inactive); GI50 (SNB-19): > 100 µM (inactive)
